# Data as given in publication PMC5656322, “BAK1 is involved in AtRALF1-induced inhibition of root cell expansion” (PLoS Genetics, 2017).
# Where no end group is shown, it is not given here.
# Experiments:
# BAK1-GFP = experiment: BAK1 protein accumulation, protein blot anti-GFP; assay type: in vivo, Arabidopsis thaliana; details: pBAK1:BAK1-GFP plants, 1 μM
# Method: Fig 4 The BAK1 gene is induced by AtRALF1. (A) BAK1 gene expression in the roots of Arabidopsis seedlings (10-days-old) treated with AtRALF1. Root tissues were collected 1 h after treatment. Semi-quantitative RT-PCR and qRT-PCR were performed using total RNA extracted from the roots of untreated (-) or treated (+) plants. GAPDH expression was used as an internal control. (B) Quantification of GFP fluorescence intensity. The values are the mean ± SD of 20 seedlings. Student’s t test was used to compare the values obtained from treated and untreated seedlings. Double asterisk indicates P < 0.05 (Student’s t test); ns, not significant. (C) Representative confocal images of pBAK1:BAK1-GFP seedlings (4 days old) treated with 1 μM AtRALF1. Images were captured 4 h after treatment and were obtained by scanning 10 slices over a distance of 7 μm. MZ, meristematic zone; EZ, elongation zone; DZ, Differentiation zone. Bars, 100 μm. (D) pBAK1:BAK1-GFP plants were treated with water or 1 μM AtRALF1. After treatment, protein extracts from pBAK1:BAK1-GFP roots were subjected to immunoblot analysis with anti-GFP antibody. Ponceau was used to show equal loading of protein.
# FLS2 (FLS2-ECD) = experiment: Yeast two-hybrid with FLS2-ECD; assay type: binding, Arabidopsis thaliana; details: yeast AH109, medium lacking Leu, Trp, His
# Text: Fig 6 AtRALF1 interacts physically with BAK1 protein. (A) The active AtRALF1 peptide interacts with the extracellular domain (ECD) of BAK1 (BAK1-ECD) in yeast. The AtRALF1 protein fused to the GAL4 DNA-binding domain (AtRALF1-pGBKT7) was used as bait to test its interaction with the extracellular domain of the proteins fused to the GAL4 activation domain (pGADT7): BAK1 (BAK1-ECD), BAK7 (BAK7-ECD), BRI1 (BRI1-ECD) and FLS2 (FLS2-ECD). (B) Blueprint showing the truncated proteins from the extracellular domain of BAK1 tested in the two-hybrid assay. The extracellular domain of BAK1 comprises leucine zippers (LZ), 5 leucine rich-regions (LRRs) and a proline-rich region (pro-rich). (C) AtRALF1-pGBKT7 was used as bait to test its interaction with truncated proteins fused to the GAL4 activation domain (pGADT7). […] HA-BAK1-ECD was detected with an anti-HA antibody. AtRALF1 was detected with an anti-RALF antibody. […] BAK1-GFP was detected with an anti-GFP antibody. […]
# (§1) The coding regions of the mature peptides AtRALF1 and AtRALF34 were amplified from Arabidopsis genomic DNA and fused to the GAL4 DNA-binding domain and the MYC epitope tag using the NdeI/BamHI sites in the pGBKT7 (Clontech) vector. […] The proteins fused to the HA and MYC epitope tags were detected by protein blotting. […]
# [1] = tested on: truncated proteins from the extracellular domain of BAK1; experiment: Yeast two-hybrid with truncated BAK1-ECD; assay type: binding, Arabidopsis thaliana
# Text: Fig 6 AtRALF1 interacts physically with BAK1 protein. (A) The active AtRALF1 peptide interacts with the extracellular domain (ECD) of BAK1 (BAK1-ECD) in yeast. The AtRALF1 protein fused to the GAL4 DNA-binding domain (AtRALF1-pGBKT7) was used as bait to test its interaction with the extracellular domain of the proteins fused to the GAL4 activation domain (pGADT7): BAK1 (BAK1-ECD), BAK7 (BAK7-ECD), BRI1 (BRI1-ECD) and FLS2 (FLS2-ECD). (B) Blueprint showing the truncated proteins from the extracellular domain of BAK1 tested in the two-hybrid assay. The extracellular domain of BAK1 comprises leucine zippers (LZ), 5 leucine rich-regions (LRRs) and a proline-rich region (pro-rich). (C) AtRALF1-pGBKT7 was used as bait to test its interaction with truncated proteins fused to the GAL4 activation domain (pGADT7). The transformed yeast cells in (A) and (C) were selected on a synthetic complete medium lacking leucine, tryptophan and histidine to test interactions. (D, E) Co-immunoprecipitation (Co-IP) in vitro between the extracellular domain of BAK1 (HA-BAK1-ECD) and AtRALF1 recombinant purified proteins. HA-BAK1-ECD was detected with an anti-HA antibody. AtRALF1 was detected with an anti-RALF antibody. (F) Recombinant AtRALF1 is co-immunoprecipitated with the BAK1-GFP protein expressed in tobacco. BAK1-GFP was detected with an anti-GFP antibody. […] (G) Isothermal titration calorimetry (ITC) of the extracellular domain of BAK1 (BAK1-ECD) vs. AtRALF1 in ITC buffer (15 mM HEPES, pH 6.8). ITC experiments were simulated using 28 injections of BAK1-ED (0.7 mM, vol 10 μL) on AtRALF1 (0.03 mM vol cell = 1.4 mL) at 25°C. […]
# as §1
# Supplementary file pgen.1007053.s012.pdf: S12 Fig Analyses of protein extracts from yeast. […] The proteins were monitored using an anti-HA antibody. […]
# BAK1 = BAK1 phosphorylation assay, anti-phosphoserine; assay type: in vivo, Arabidopsis thaliana; details: pBAK1:BAK1-6xHA roots; 1, 2 and 10 μM, 20 min
# Method: Transgenic plants pBAK1:BAK1-6xHA were grown in vertical plates for 10–15 days. The plants were treated with 0.1 μM BL, 2 μM RALF1(9–49), 1 μM, 2 μM or 10 μM AtRALF1 for 20 min. The roots were isolated, and the microsomal fractions were obtained as described above. The microsomal fractions were incubated with anti-HA beads (EZview Red Anti-HA Affinity Gel, Sigma) for 2 h at 4 °C to immunoprecipitate the BAK1 protein. The unbound materials were removed by washing 3 times. Proteins were separated by SDS/PAGE and further analyzed by protein blotting using anti-HA (Thermo Scientific), or anti-phosphothreonine (Novus Biologicals), or anti-phosphoserine (Novus Biologicals) antibodies.
# [2] = tested on: Arabidopsis seedlings, primary root; details: wild-type Arabidopsis; ref [5]; cited from earlier work
# Method: To better understand the role of AtRALF1 and BRs in regulating cell expansion, we exposed different mutants and transgenic Arabidopsis plants with altered BR signaling pathways to the peptide hormone AtRALF1 at concentrations that inhibit root growth. Loss-of-function mutants (bri1-301, bsk3-2 and bak1-4), gain-of-function mutants (sud1, bes1-D and bzr1-D) and two overexpressor lines (BRI OX and DWF4 OX) were used in the root growth assays in the presence or absence of 10 μM AtRALF1 (Fig 1A).
substance,measurement,setting,value
AtRALF1: root-specific RALF isoform in Arabidopsis; recombinant peptide hormone produced in E. coli (ATTKYISYQSLKRNSVPCSRRGASYYNCQNGAQANPYSRGCSKIARCRS; ends and bridges not checked; cysteine pairing not given here),BAK1 protein accumulation,BAK1-GFP,BAK1 protein accumulation was also verified by protein blot
same,interaction with FLS2-ECD (Y2H complementation),FLS2 (FLS2-ECD),able to complement only the BAK1-ECD construct
same,interaction with truncated BAK1-ECD,[1]; 12 truncated proteins,only two that interacted with AtRALF1: Leu zippers + LRR1 + LRR2 + LRR3 and Leu zippers + LRR1 + LRR2
same,interaction with BAK1-ECD lacking Pro-rich region and LRR5,[1]; C-terminal deletion,abolished the interaction
same,interaction with N-terminal deletions of BAK1-ECD,[1]; deletions from N-terminal,None of the deletions from N-terminal were able to interact with AtRALF1
same,BAK1 serine phosphorylation,BAK1,no changes were detected
same,primary root growth inhibition,[2],inhibits the primary root growth of wild-type Arabidopsis plants
